Test results as given in PubChem BioAssay (NCI).
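Where inhibition never reached the appropriate level, the endpoint shown equals the highest concentration tested. Otherwise, values were interpolated linearly from a five-concentration, 48-hour dose response in 96-well plates. GI50 marks 50% less growth. TGI denotes the concentration required for complete inhibition of growth.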

Tests used:
Experiment in all cases: growth of human tumour cells (NCI), 48 h
CCRF-CEM leukemia = system: CCRF-CEM leukemia
HCT-15 colon = system: HCT-15 colon
LOX IMVI melanoma = system: LOX IMVI melanoma
M14 melanoma = system: M14 melanoma
NCI-H23 lung = system: NCI-H23 lung
OVCAR-4 ovarian = system: OVCAR-4 ovarian
SK-MEL-5 melanoma = system: SK-MEL-5 melanoma
U251 CNS = system: U251 CNS
UACC-257 melanoma = system: UACC-257 melanoma
SF-539 CNS = system: SF-539 CNS

Row | SMILES | TGI (CCRF-CEM leukemia) [µM] | TGI (HCT-15 colon) [µM] | TGI (LOX IMVI melanoma) [µM] | TGI (M14 melanoma) [µM] | TGI (NCI-H23 lung) [µM] | TGI (OVCAR-4 ovarian) [µM] | TGI (SK-MEL-5 melanoma) [µM] | TGI (U251 CNS) [µM] | TGI (UACC-257 melanoma) [µM] | TGI (SF-539 CNS) [µM] | GI50 (CCRF-CEM leukemia) [µM] | GI50 (HCT-15 colon) [µM] | GI50 (LOX IMVI melanoma) [µM] | GI50 (M14 melanoma) [µM] | GI50 (NCI-H23 lung) [µM] | GI50 (OVCAR-4 ovarian) [µM] | GI50 (SF-539 CNS) [µM] | GI50 (SK-MEL-5 melanoma) [µM] | GI50 (U251 CNS) [µM] | GI50 (UACC-257 melanoma) [µM]
1 | N#Cc1c(NC(=S)NC(=O)c2ccccc2)nc2c(c1-c1ccccc1)CCCC2 | > 100 | > 100 | > 100 | > 100 | > 100 | > 100 | > 100 | > 100 | > 100 |  |  |  |  |  |  |  |  |  |  | 
2 | CCC(C)C(=O)c1c(O)c(C/C=C(\C)CCC=C(C)C)c(O)c2c(C(O)CC)cc(=O)oc12 (stereo not given) | 3.44 |  | 12.6 | 14.4 | 3.89 | 10.5 | 2.74 | 9.67 | 6.84 | 7.43 |  |  |  |  |  |  |  |  |  | 
3 | Brc1ccccc1-c1ncc(-c2ccccc2)o1 | 54.7 | 44.9 | 34.1 | > 100 | > 100 | > 100 | 34.5 | 44.2 | > 100 | 77.1 |  |  |  |  |  |  |  |  |  | 
4 | O=[N+]([O-])c1cn[n+]([O-])c2ccccc12 |  | 8.52 | 20.9 | 13 | 36.1 |  | 26.7 | 15 | 26.2 | 22.7 |  |  |  |  |  |  |  |  |  | 
5 | CC[n+]1c(/C=C/c2ccc(N(CCCl)CCCl)cc2)ccc2cc(NC(=O)/C=C/c3ccccc3)ccc21 | 0.831 | > 94.7 | 1.51 | 3.28 | 1.98 |  | 0.632 | 0.619 | 1.13 | 2.03 |  |  |  |  |  |  |  |  |  | 
6 | COc1cc(C2c3cc4c(cc3[C@@H](Nc3cccc(C(C)=O)c3)C3COC(=O)[C@H]23)OCO4)cc(OC)c1O (stereo not given in full) | 0.231 | 2.06 | 4.38 |  | 3.14 | > 100 | 2.37 | 9.97 | 8.57 | 1.24 |  |  |  |  |  |  |  |  |  | 
7 | Cn1c(-c2ccc(/C=N\N3CCN(/N=C/c4ccc(-c5c[n+]6ccccc6n5C)cc4)CC3)cc2)c[n+]2ccccc12 | > 100 | > 100 | > 100 | > 100 | > 100 | > 100 | > 100 | > 100 | > 100 | > 100 |  |  |  |  |  |  |  |  |  | 
8 | COc1ccc(-c2cc(N3CCN(c4ccccc4)CC3)c(C#N)c(=O)o2)cc1 | > 100 | > 100 | > 100 | > 100 | > 100 | 15 | > 100 | > 100 | > 100 | 41.5 |  |  |  |  |  |  |  |  |  | 
9 | COc1ccc(NC(=O)/C(=C/c2ccc(N(CCC#N)CCC#N)cc2)NC(=O)c2cc([N+](=O)[O-])ccc2Cl)cc1 | > 100 | > 100 | > 100 | > 100 | > 100 | > 100 | > 100 | > 100 |  | 50.8 |  |  |  |  |  |  |  |  |  | 
10 | COc1ccc(NC(=O)/C(CC2=Nc3ccc([N+](=O)[O-])cc3NC2O)=N\NC(=O)C[N+](C)(C)C)c(OC)c1 (stereo not given) | > 100 | > 100 | > 100 | > 100 | > 100 | > 100 | 96.3 | > 100 | > 100 | > 100 |  |  |  |  |  |  |  |  |  | 
11 | NCc1ccc(C(=O)O)cc1 |  | > 100 | > 100 | > 100 | > 100 | > 100 | > 100 | > 100 | > 100 |  |  |  |  |  |  |  |  |  |  | 
12 | Cc1nc2ccccc2c(=O)[nH]1 | > 100 | > 100 | > 100 | > 100 | > 100 | > 100 | > 100 | > 100 | > 100 | > 100 |  |  |  |  |  |  |  |  |  | 
13 | ClCc1c(Cl)c(Cl)c(Cl)c(CCl)c1Cl | 3.28 | 2.85 | 3.13 | 3.43 | 6.67 | 2.98 | 6.25 | 3.08 | 3.45 | 13.5 | 0.841 | 1.52 | 1.46 | 1.66 | 2.3 | 1.62 | 3.72 | 2.23 | 1.71 | 1.84
14 | NCc1ccccc1C1CSCSC1 | > 100 | > 100 | > 100 |  | > 100 | > 100 | > 100 | > 100 | > 100 | > 100 |  |  |  |  |  |  |  |  |  | 
15 | Cc1ccc(S(N)(=O)=O)cc1 | > 1000 | > 1000 | > 1000 | > 1000 | > 1000 |  | > 1000 | > 1000 | > 1000 | > 1000 |  |  |  |  |  |  |  |  |  | 
16 | CCO/N=[N+](\[O-])N(CC)CC | > 100 | > 100 | > 100 | > 100 | > 100 |  | > 100 |  | > 100 | > 100 |  |  |  |  |  |  |  |  |  | 
17 | CC(C)C[P+](c1ccccc1)(c1ccccc1)c1ccccc1 | 11.1 | > 100 | > 100 | > 100 | > 100 | > 100 | 18.2 | > 100 | 4.19 | > 100 |  |  |  |  |  |  |  |  |  | 
18 | CC(C)(Br)C1(O)CCCN1C(=O)c1ccccc1 (stereo not given) | > 100 | > 100 | > 100 | > 100 | > 100 |  | > 100 | > 100 | > 100 | > 100 |  |  |  |  |  |  |  |  |  | 
19 | CCOC(=O)/C=C(\C)c1ccc(OC)cc1 |  | > 100 | > 100 | > 100 | > 100 | > 100 | > 100 | > 100 | > 100 | > 100 |  |  |  |  |  |  |  |  |  | 
